Reference: US12448425B2, “Therapeutic peptides” (Board of Regents, The University of Texas System, priority 2019, dated 2025)

What was measured:
[1] = Particle size by transmission electron microscopy; type: physicochemical
Method: CCPM-BIDEN-AP conjugation. CCPM with amine functionalized surface was synthesized according to reported procedures (Koolpe et al., 2005). To introduce a maleimide group to the CCPM, an aliquot of N-(γ-maleimidobutyryloxy)-succinimide ester) (GMBS) in DMF ([…], 0.16 mmol) was added into the CCPM ([…], 2.6 nmol nanoparticles) in 1.2 mL of phosphate-buffered saline solution (PBS, pH 8). The mixture was stirred for 3 h at 37° C. The product was purified using a PD-10 column to remove unreacted GMBS. To introduce a sulfhydryl group to BIDEN-AP, the amino acid cysteine was conjugated to the N-terminal amine of BIDEN-AP. The resulting sulfhydryl-containing Cys-BIDEN-AP was mixed with 2 mL of a solution of CCPM-maleimide (0.16 mmol equivalent maleimide) in PBS with a 2:1 molar ratio of Cys-BIDEN-AP to maleimide groups (CCPM). […] The unreacted Cys-BIDEN-AP was quantified on an Agilent 1100 Series LC/MSD-TOF instrument equipped with a Vydac C18 column. The molar ratio of BIDEN-AP to CCPM was calculated on the basis of Cys-BIDEN-AP consumed (total Cys-BIDEN-AP minus remaining Cys-BIDEN-AP). The size of CCPM-BIDEN-AP was determined by transmission electron microscopy (TEM). […]

EphB4 and Crk1 = assay: Phosphorylation of EphB4 and Crk1 in A2780cp20 cells (IP/immunoblot); type: cell-based, human
Method: FIGS. 2A-C: BIDEN-AP acts as an EphB4 agonist. (FIG. 2A) BIDEN-AP induced phosphorylation of EphB4 and the associated […] (Crk1). After 16 h serum starvation, A2780cp20 cells were incubated with EFNB2-Fc (20 nM), TNYL-RAW (SEQ ID NO: 12) (50 μM), or BIDEN-AP (50 μM) for 30 min or 2 h. The uncropped blots were available at Supplemental FIG. 11. (FIG. 2B) BIDEN-AP inhibited A2780cp20 cell invasion compared to untreated control (CTL). A modified Boyden transwell chamber coated with human defined matrigel was used. Experiments were performed in triplicate. Data are presented as mean±SD. ***p<0.001. (FIG. 2C) Alexa647-BIDEN-AP was internalized via receptor-mediated endocytosis. A2780cp20 cells were incubated at 37° C. with Alexa647-BIDEN-AP (0.05 μM), Alexa647-TNYL-RAW (SEQ ID NO: 12) (0.05 μM), or Alexa647-BIDEN-AP (0.05 μM) plus unlabeled TNYL-RAW (SEQ ID NO: 12) (5 μM, blocking). Alexa647-BIDEN-AP but not Alexa647-TNYL-RAW (SEQ ID NO: 12) was internalized into the A2780cp20 cells.
Total protein lysates were harvested and subjected to Nupage-SDS separation followed by immunoblotting. […] CTL, untreated control. The uncropped blots were available at Supplemental FIG. 11.
Immunoblotting, immunoprecipitation, and co-immunoprecipitation. […] The protein concentrations were determined by using a BCA Protein Assay Reagent kit (Pierce Biotechnology, Rockford, IL). […]

Bev-resistant RF24 cells = assay: Cell death in bevacizumab-resistant RF24 cells (SYTOX-green flow cytometry); type: cell-based
Method: FIGS. 4A-D: BIDEN-AP-based agents inhibit microtubule formation and sensitizes resistant endothelial cells to anti-VEGF antibody. (FIG. 4A, FIG. 4B) Microtubule formation in RF24 cells treated with EFNB2-Fc (2 nM) or BIDEN-AP (15 μM) compared to untreated controls (CTL). Five images per well were taken at ×100 magnification. […] Representative plots from flow cytometry analysis with SYTOX-green are shown. […] Data are presented as mean±SD (n=6). *p<0.05, **p<0.01.
Given the important role of endothelium in adaptive changes with anti-angiogenic therapy (Bergers et al., 2008), we further tested the effects of BIDEN-AP in overcoming resistance to anti-VEGF therapy in RF24 cells. To do this, we first established a bevacizumab (Bev)-resistant RF24 cell line selected though continuous Bev treatment at low dose ([…]) for 2 weeks. The Bev-resistant RF24 cells were maintained at a Bev concentration of […]. Using flow cytometry with SYTOX-green staining, we quantified the live (SYTOX-negative) vs. dead (SYTOX-positive) populations after treatment with BIDEN-AP or CCPM-BIDEN-AP.

CCPM-BIDEN-AP: nano-conjugate of Cys-BIDEN-AP on core-crosslinked polymeric micelles via maleimide (GMBS) (CTNYLFSPNGPIARAW; D-residues)
mean diameter (TEM) [1]: 24±3 nm | phosphorylation of EphB4 and Crk1 in vitro (EphB4 and Crk1): induce EphB4 and Crk1 phosphorylation | sensitization of Bev-resistant cells to Bev treatment (Bev-resistant RF24 cells): re-sensitized these cells to Bev treatment
